# Measured values from patent EP0863891B1, “(METHYLSULFONYL)PHENYL-2-(5H)-FURANONES AS COX-2 INHIBITORS” (Merck Frosst Canada & Co., priority 1995, dated 1997).
# Like-named read-outs stand apart in the source and are kept apart here.
# Columns and labels:
# [1] = target: T1, COX-2 (Homo sapiens, UniProt P35354); experiment: Assay of the activity of purified human COX-2 (TMPD chromogenic assay); type: biochemical; design: made in house; host or cells: Sf9 cells
# T1 sequence (P35354 18-604): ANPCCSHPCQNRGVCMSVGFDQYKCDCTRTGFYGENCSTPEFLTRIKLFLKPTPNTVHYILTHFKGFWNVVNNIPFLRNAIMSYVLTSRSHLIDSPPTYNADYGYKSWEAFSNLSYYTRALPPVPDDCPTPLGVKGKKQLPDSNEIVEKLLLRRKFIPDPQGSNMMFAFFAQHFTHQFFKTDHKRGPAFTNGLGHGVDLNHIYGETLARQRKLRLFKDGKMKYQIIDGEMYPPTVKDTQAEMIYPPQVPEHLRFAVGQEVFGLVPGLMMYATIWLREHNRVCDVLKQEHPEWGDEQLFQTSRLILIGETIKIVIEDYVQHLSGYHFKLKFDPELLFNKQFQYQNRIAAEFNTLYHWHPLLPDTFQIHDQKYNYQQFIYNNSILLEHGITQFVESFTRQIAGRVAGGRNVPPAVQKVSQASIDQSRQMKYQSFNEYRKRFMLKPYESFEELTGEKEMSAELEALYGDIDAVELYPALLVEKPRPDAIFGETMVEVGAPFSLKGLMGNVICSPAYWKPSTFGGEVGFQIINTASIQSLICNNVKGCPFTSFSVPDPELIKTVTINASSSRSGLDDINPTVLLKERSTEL
# Experimental: Assay of the activity of purified human COX-2
# The assay mixture (180 µL) contains 100 mM sodium phosphate, pH 6.5, 2 mM genapol X-100, 1 µM hematin, 1 mg/ml gelatin , 80-100 units of purified enzyme (One unit of enzyme is defined as the amount of enzyme required to produce an O.D. change of 0.001/min at 610 nm) and 4 µL of the test compound in DMSO. The mixture is pre-incubated at room temperature (22°C) for 15 minutes prior to initiation of the enzymatic reaction by the addition of 20 µL of a sonicated solution of I mM arachidonic acid (AA) and 1 mM TMPD in assay buffer (without enzyme or hematin). The enzymatic activity is measured by estimation of the initial velocity of TMPD oxidation over the first 36 sec of the reaction. […] IC50 values are derived from 4-parameter least squares non-linear regression analysis of the log-dose vs % inhibition plot.
# [2] = target: T1, COX-2; experiment: Human whole blood assay, COX-2 (LPS-induced PGE2 production); type: cell-based; design: endogenous in cells; host or cells: fresh heparinized human whole blood from volunteers, induced with LPS; conditions: Table IV; human whole blood, LPS, 24 hours; read-out: COX-2(IC50, µM) HWB
# Source text: As well, platelets in whole blood contain a large amount of the COX-1 enzyme. Immediately following blood clotting, platelets are activated through a thrombin-mediated mechanism. […] Therefore, the degree of selectivity by the test compound can be determined by measuring the levels of PGE2 after LPS induction (COX-2) and TxB2 following blood clotting (COX-1) in the same assay.
# A. COX-2 (LPS-induced PGE2 production)
# Fresh blood is collected in heparinized tubes by venipuncture from both male and female volunteers. The subjects have no apparent inflammatory conditions and have not taken any NSAIDs for at least 7 days prior to blood collection. Plasma is immediately obtained from a 2mL blood aliquot to use as blank (basal levels of PGE2).
# [3] = target: T2, CHO [hCOX-2] (Homo sapiens, UniProt P35354); experiment: Whole cell assay for COX-2 using CHO transfected cell line (PGE2 synthesis); type: cell-based; conditions: read-out: COX-2(IC50, µM) CHO
# T2 construct: expressed in transfected cells; host or cells: CHO cells, stably transfected with pCDNAIII
# T2 sequence (P35354 18-604): T1 sequence (P35354 18-604)
# Experimental: Chinese hamster ovary (CHO) cell lines which have been stably transfected with an eukaryotic expression vector pCDNAIII containing either the human COX-1 or COX-2 cDNA's are used for the assay. These cell lines are referred to as CHO [hCOX-1] and CHO [hCOX-2], respectively. […] Cells (0.3 x 10^6 cells in 200 µl) are preincubated with 3 µl of the test drug or DMSO vehicle for 15 min at 37°C. […] Cells are then challenged in the presence or absence of drug with the AA/HBSS solution to yield a final concentration of 0.5 µM AA in the CHO[hCOX-1] assay and a final concentration of 10 µM AA in the CHO[hCOX-2] assay. […] The samples are centrifuged at 300 x g at 4°C for 10 min, and an aliquot of the clarified supernatant is appropriately diluted for the determination of PGE2 levels using an enzyme-linked immunoassay for PGE2 (Correlate PGE2 enzyme immunoassay kit, Assay Designs, Inc.). Cyclooxygenase activity in the absence of test compounds is determined as the difference in PGE2 levels of cells challenged with arachidonic acid versus the PGE2 levels in cells mock-challenged with ethanol vehicle. Inhibition of PGE2 synthesis by test compounds is calculated as a percentage of the activity in the presence of drug versus the activity in the positive control samples.
# In the assay, inhibition is determined by measuring the amount of prostaglandin E2 (PGE2) synthesized in the presence of arachidonic acid, cyclooxygenase-1 or cyclooxygenase-2 and a putative inhibitor.
# [4] = test system: Male Sprague-Dawley rats; experiment: Rat paw edema assay (carrageenan-induced); type: in vivo; conditions: po, 3 hr; for ED50: Rattus norvegicus
# Experimental: Male Sprague-Dawley rats (150-200 g) are fasted overnight and are given, po, either vehicle (1% methocel or 5% Tween 80) or a test compound. One hr later, a line is drawn using a permanent marker at the level above the ankle in one hind paw to define the area of the paw to be monitored. The paw volume (V0) is measured using a plethysmometer (Ugo-Basile, Italy) based on the principle of water displacement. The animals are then injected subplantarly with 50 µl of 1% carrageenan solution in saline (PMC Corp, Maine) into the paw using an insulin syringe with a 25-gauge needle (i.e. 500 µg carrageenan per paw). Three hr later, the paw volume (V3) is measured and the increases in paw volume (V3 - VO) are calculated. The animals are sacrificed by CO2 asphyxiation and the absence or presence of stomach lesions scored. Data is compared with the vehicle-control values and percent inhibition calculated. All treatment groups are coded to eliminate observer bias.
# [5] = Table IV, purified enzyme, TMPD oxidation, read-out: COX-2(IC50, µM) TMPD
# [6] = Table IV, CHO[hCOX-2] cells, 10 µM AA
Compound,"IC50 [1, 5] [µM]",IC50 [2] [µM],"IC50 [3, 6] [µM]",ED50 ([4]; Table IV) [mg/kg],other results
"C[C@]1(CC(F)(F)F)OC(=O)C(Oc2ccc(F)cc2)=C1c1ccc(S(C)(=O)=O)cc1 [Example 166, (5R)-3-(4-fluorophenoxy)-5-methyl-4-(4-methylsulfonyl)phenyl-5-(2,2,2-trifluoroethyl)-5H-furan-2-one]",6.5,0.28,0.05,,Rat Paw Edema ED50(mg/kg) ([4]; Table IV): 4.9 mg/kg
"CC[C@@]1(C)OC(=O)C(Oc2ccc(F)c(F)c2)=C1c1ccc(S(C)(=O)=O)cc1 [Example 117, (5R)-3-(3,4-Difluorophenoxy)-5-ethyl-5-methyl-4-(4-methylsulfonyl)phenyl-5H-furan-2-one]",,,,1,
"CC[C@@]1(C)OC(=O)C(Oc2ccc(F)cc2)=C1c1ccc(S(C)(=O)=O)cc1 [Example 163, (5R)-3-(4-Fluorophenoxy)-5-ethyl-5-methyl-4-(4-methylsulfonyl) phenyl-5H-furan-2-one]",,,,0.64,
"C[C@]1(CC(F)(F)F)OC(=O)C(Oc2ccc(Br)cn2)=C1c1ccc(S(C)(=O)=O)cc1 [Example 201, (5R)-3-(5-bromo-2-pyridyloxy)-4-(4-methylsulfonylphenyl)-5-methyl-5-(2,2,2-trifluoroethyl)-5H-furan-2-one]",14,0.18,0.07,2.7,
"Cc1cc(OC2=C(c3ccc(S(C)(=O)=O)cc3)C(C)(C)OC2=O)ncc1F [Example 122, 3-(5-Fluoro-4-methyl-2-pyridyloxy)-5,5-dimethyl-4-(4-methylsulfonyl)-phenyl-5H-furan-2-one]",4.6,0.38,0.15,1.2,
"C[C@]1(CC(F)(F)F)OC(=O)C(Oc2ccc(F)cn2)=C1c1ccc(S(C)(=O)=O)cc1 [Example 164, (5R)-3-(5-Fluoro-2-pyridyloxy)-5-methyl-4-(4-methylsulfonyl) phenyl-5-(2.2.2-trifluoroethyl)-5H-furan-2-one]",,,,2,
CC1(C)OC(=O)C(OCC2CC2)=C1c1ccc(S(C)(=O)=O)cc1 [Example 148],,,0.01,1.2,
"CC1(C)OC(=O)C(Oc2ccc(Cl)cc2)=C1c1ccc(S(C)(=O)=O)cc1 [Example 6, 3-(4-Chlorophenoxy)-5,5-dimethyl-4-(4-(methylsulfonyl)phenyl)-5H-furan-2-one]",,,,,IC50 [1]: 2 µM; ED50 ([4]; Table II): 7.65 mg/kg
"CC[C@@]1(C)OC(=O)C(Oc2ccc(Cl)cn2)=C1c1ccc(S(C)(=O)=O)cc1 [Example 169, (5R)-3-(5-chloro-2-pyridyloxy)-5-ethyl-5-methyl-4-(4-methylsulfonyl) phenyl-5H-furan-2-one]",4,< 0.41,0.05,4.6,
CC1(C)OC(=O)C(OC2CCC2)=C1c1ccc(S(C)(=O)=O)cc1 [Example 174],,,,1.6,
"Cc1cc(OC2=C(c3ccc(S(C)(=O)=O)cc3)C(C)(C)OC2=O)ncc1Cl [Example 121, 3-(5-Chloro-4-methyl-2-pyridyloxy)-5,5-dimethyl-4-(4-methylsulfonyl)-phenyl-5H-furan-2-one]",,,,10,
"CC[C@@]1(C)OC(=O)C(Oc2ccc(Br)cn2)=C1c1ccc(S(C)(=O)=O)cc1 [Example 202, (5R)-3-(5-bromo-2-pyridyloxy)-4-(4-methylsulfonylphenyl)-5-ethyl-5-methyl-5H-furan-2-one]",,,,5.4,
"CC[C@@]1(C)OC(=O)C(OC(C)C)=C1c1ccc(S(C)(=O)=O)cc1 [Example 140, 5(R)-5-ethyl-5-methyl-4-(4-(methylsulfonyl)phenyl)-3-(2-propoxy)-5H-furan-2-one]",,0.54,0.12,4.6,
"CCC(C)OC1=C(c2ccc(S(C)(=O)=O)cc2)C(C)(C)OC1=O (stereo not shown) [Example 112, 5,5-Dimethyl-3-(2-butoxy)-4-(4-methylsulfonylphenyl)-5H-furan-2-one]",,,,8,
CC(OC1=C(c2ccc(S(C)(=O)=O)cc2)C(C)(C)OC1=O)C1CC1 (stereo not shown) [Example 134],,,,0.9,
"CC(C)COC1=C(c2ccc(S(C)(=O)=O)cc2)C(C)(C)OC1=O [Example 149, 5,5-dimethyl-3-(isobutoxy)-4-(4-(methylsulfonyl)phenyl)-5H-furan-2-one]",,,,0.9,
"CC1(C)OC(=O)C(Oc2ncccc2F)=C1c1ccc(S(C)(=O)=O)cc1 [Example 167, 3-(3-Fluoro-2-pyridyloxy)-5,5-dimethyl-4-(4-methylsulfonyl) phenyl-5H-furan-2-one]",,0.21,0.11,6.4,
"CC[C@@]1(C)OC(=O)C(Oc2ccc(Cl)cc2)=C1c1ccc(S(C)(=O)=O)cc1 [Example 118, (5R)-3-(4-Chlorophenoxy)-5-ethyl-5-methyl-4-(4-methylsulfonyl)phenyl-5H-furan-2-one]",2.2,0.05,0.008,1.4,
"CC[C@@]1(C)OC(=O)C(Oc2ccc(Br)cc2)=C1c1ccc(S(C)(=O)=O)cc1 [Example 128, (5R)-3-(4-Bromophenoxy)-5-ethyl-5-methyl-4-(4-methylsulfonyl)phenyl-5H-furan-2-one]",1.7,< 0.41,,5,IC50 [3]: 0.01 µM
